Source: PubChem BioAssay AID248 (DTP/NCI, 2004)
“And” between values parts separate entries of the source, which are not always exact repeats. Identical values can stand only once. Toxic doses and inconclusive results are not listed. Cut-off read from the data, not from the text of the source: active = T/C of 150% or more; inactive = T/C below 125%.

Tested on: L1210 leukemia ip in BDF1 mice, survival T/C
Assay: NCI In Vivo Anticancer Drug Screen. Data for tumor model L1210 Leukemia (intraperitoneal) in B6D2F1 (BDF1) mice
Settings: endpoint: mean survival time, higher = longer survival
Method in brief: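 Survival endpoint. Drug-treated group vs vehicle group, expressed as T divided by C. Tumor passaged by transplantation.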

[1] = dose: 100.0 mg/kg/injection, schedule: Q04DX002 (ip), vehicle: Klucel (hydroxypropylcellulose) (HPC)
[2] = dose: 200.0 mg/kg/injection, schedule: Q04DX002 (ip), vehicle: Klucel (hydroxypropylcellulose) (HPC)
[3] = dose: 400.0 mg/kg/injection, schedule: Q04DX002 (ip), vehicle: Klucel (hydroxypropylcellulose) (HPC)
[4] = dose: 100.0 mg/kg/injection, schedule: Q01DX001 (ip), vehicle: saline
[5] = dose: 200.0 mg/kg/injection, schedule: Q01DX001 (ip), vehicle: saline
[6] = dose: 400.0 mg/kg/injection, schedule: Q01DX001 (ip), vehicle: saline
[7] = dose: 100.0 mg/kg/injection, schedule: Q04DX003 (ip), vehicle: saline with Tween-80
[8] = dose: 200.0 mg/kg/injection, schedule: Q04DX003 (ip), vehicle: saline with Tween-80
[9] = dose: 400.0 mg/kg/injection, schedule: Q04DX003 (ip), vehicle: saline with Tween-80
[10] = dose: 25.0 mg/kg/injection, schedule: Q04DX003 (ip), vehicle: Klucel (hydroxypropylcellulose) (HPC)
[11] = dose: 50.0 mg/kg/injection, schedule: Q04DX003 (ip), vehicle: Klucel (hydroxypropylcellulose) (HPC)
[12] = dose: 100.0 mg/kg/injection, schedule: Q01DX001 (ip), vehicle: saline with Tween-80
[13] = dose: 200.0 mg/kg/injection, schedule: Q01DX001 (ip), vehicle: saline with Tween-80
[14] = dose: 400.0 mg/kg/injection, schedule: Q01DX001 (ip), vehicle: saline with Tween-80
[15] = dose: 50.0 mg/kg/injection, schedule: Q01DX009 (ip), vehicle: saline
[16] = dose: 100.0 mg/kg/injection, schedule: Q01DX009 (ip), vehicle: saline
[17] = dose: 100.0 mg/kg/injection, schedule: Q04DX003 (ip), vehicle: saline
[18] = dose: 200.0 mg/kg/injection, schedule: Q04DX003 (ip), vehicle: saline
[19] = dose: 100.0 mg/kg/injection, schedule: Q04DX003 (ip), vehicle: Klucel (hydroxypropylcellulose) (HPC)
[20] = dose: 200.0 mg/kg/injection, schedule: Q04DX003 (ip), vehicle: Klucel (hydroxypropylcellulose) (HPC)
[21] = dose: 400.0 mg/kg/injection, schedule: Q04DX003 (ip), vehicle: Klucel (hydroxypropylcellulose) (HPC)
[22] = dose: 25.0 mg/kg/injection, schedule: Q01DX009 (ip), vehicle: saline with Tween-80
[23] = dose: 50.0 mg/kg/injection, schedule: Q01DX009 (ip), vehicle: saline with Tween-80
[24] = dose: 100.0 mg/kg/injection, schedule: Q01DX009 (ip), vehicle: saline with Tween-80

Measured: T/C

O=C(COc1ccc(Cl)cc1)Nc1ccc(I)cc1
inactive: [1] 92 % of control | [2] 100 % of control | [3] 96 % of control

COB(OC)OC
inactive: dose: 50.0 mg/kg/injection, schedule: Q01DX001 (ip), vehicle: saline 98 % of control | [4] 95 % of control | [5] 101 % of control | [6] 95 % of control

O=C(C(=O)c1ccccc1)c1ccccc1
inactive: dose: 25.0 mg/kg/injection, schedule: Q01DX009 (ip), vehicle: water 102 % of control | dose: 50.0 mg/kg/injection, schedule: Q01DX009 (ip), vehicle: water 96 % of control | dose: 100.0 mg/kg/injection, schedule: Q01DX009 (ip), vehicle: water 102 % of control | [7] 101 % of control | dose: 200.0 mg/kg/injection, schedule: Q01DX009 (ip), vehicle: water 107 % of control | [8] 97 % of control | dose: 400.0 mg/kg/injection, schedule: Q01DX009 (ip), vehicle: water 98 % of control | [9] 101 % of control

CC[N+]1(CN2CCCCC2)CCCCC1
inactive: dose: 12.5 mg/kg/injection, schedule: Q04DX003 (ip), vehicle: Klucel (hydroxypropylcellulose) (HPC) 102 % of control | [10] 96 % of control | [11] 90 % of control

CCCOC(=O)Cc1cccc2ccccc12
inactive: dose: 222.0 mg/kg/injection, schedule: Q01DX Z (ip), vehicle: saline 90 % of control | dose: 333.0 mg/kg/injection, schedule: Q01DX Z (ip), vehicle: saline 96 % of control | dose: 500.0 mg/kg/injection, schedule: Q01DX Z (ip), vehicle: saline 96 % of control

O=C(O)c1cccn1-c1ccccc1
inactive: [12] 102 % of control | dose: 100.0 mg/kg/injection, schedule: Q04DX003 (ip), vehicle: other 96 % of control | [13] 103 % of control | dose: 200.0 mg/kg/injection, schedule: Q04DX003 (ip), vehicle: other 101 % of control | [14] 96 % of control | dose: 400.0 mg/kg/injection, schedule: Q04DX003 (ip), vehicle: other 89 % of control

CC1NC1(c1ccccc1)[n+]1ccccc1 (stereo unspecified)
inactive: [15] 97 % of control | [16] 95 % of control | [17] 105 % of control | [18] 105 % of control

NC(N)=NC(N)=Nc1cc(C(F)(F)F)ccc1Cl
inactive: dose: 12.5 mg/kg/injection, schedule: Q01DX009 (ip), vehicle: Klucel (hydroxypropylcellulose) (HPC) 95 % of control | dose: 25.0 mg/kg/injection, schedule: Q01DX009 (ip), vehicle: Klucel (hydroxypropylcellulose) (HPC) 95 % of control | dose: 50.0 mg/kg/injection, schedule: Q01DX009 (ip), vehicle: Klucel (hydroxypropylcellulose) (HPC) 113 % of control

COc1ccc(NC(=O)COc2ccccc2Br)cc1
inactive: dose: 100.0 mg/kg/injection, schedule: Q01DX009 (ip), vehicle: Klucel (hydroxypropylcellulose) (HPC) 95 % of control | [19] 101 % of control | dose: 200.0 mg/kg/injection, schedule: Q01DX009 (ip), vehicle: Klucel (hydroxypropylcellulose) (HPC) 97 % of control | [20] 96 % of control | dose: 400.0 mg/kg/injection, schedule: Q01DX009 (ip), vehicle: Klucel (hydroxypropylcellulose) (HPC) 93 % of control | [21] 93 % of control

COC(=O)C(Cc1c[nH]c2ccccc12)[N+](C)(C)C (stereo unspecified)
inactive: dose: 35.0 mg/kg/injection, schedule: Q01DX Z (ip), vehicle: saline 95 % of control | dose: 50.0 mg/kg/injection, schedule: Q01DX Z (ip), vehicle: saline 97 % of control

Cc1cc(NS(=O)(=O)c2ccc(N=Nc3c(N)n(C)c(=O)n(C)c3=O)cc2)nc(C)n1
inactive: dose: 100.0 mg/kg/injection, schedule: Q01DX001 (ip), vehicle: carboxymethylcellulose (CMC) 89 % of control | dose: 200.0 mg/kg/injection, schedule: Q01DX001 (ip), vehicle: carboxymethylcellulose (CMC) 104 % of control | dose: 400.0 mg/kg/injection, schedule: Q01DX001 (ip), vehicle: carboxymethylcellulose (CMC) 101 % of control

CCC(C#N)=C1CCCCC1
inactive: [22] 91 % of control | [23] 99 % of control | [24] 97 % of control | [17] 100 % of control

CCCC[Si](C)(C)CCCC
inactive: [4] 103 % of control | [5] 105 % of control | [6] 100 % of control

O=[N+]([O-])c1cc(S(=O)(=O)O)cc([N+](=O)[O-])c1Cl
inactive: dose: 75.0 mg/kg/injection, schedule: Q01DX001 (ip), vehicle: saline 112 % of control | dose: 150.0 mg/kg/injection, schedule: Q01DX001 (ip), vehicle: saline 109 % of control | dose: 300.0 mg/kg/injection, schedule: Q01DX001 (ip), vehicle: saline 113 % of control

CCOC(=O)NC(C)(C)CN(C(=O)OCC)c1ccccc1
inactive: [7] 111 % of control | [8] 108 % of control | [9] 106 % of control

CC(=O)COc1cccc(Cl)c1
inactive: [19] 104 % of control | [20] 98 % of control | [21] 97 % of control

CNC(=O)OCCOc1ccccc1
inactive: [12] 109 % of control | [24] 105 % of control and 116 % of control | dose: 100.0 mg/kg/injection, schedule: Q04DX002 (ip), vehicle: saline with Tween-80 97 % of control and 89 % of control | [13] 108 % of control | dose: 200.0 mg/kg/injection, schedule: Q01DX009 (ip), vehicle: saline with Tween-80 96 % of control and 101 % of control | dose: 200.0 mg/kg/injection, schedule: Q04DX002 (ip), vehicle: saline with Tween-80 94 % of control and 90 % of control | [14] 111 % of control | dose: 400.0 mg/kg/injection, schedule: Q01DX009 (ip), vehicle: saline with Tween-80 108 % of control and 110 % of control | dose: 400.0 mg/kg/injection, schedule: Q04DX002 (ip), vehicle: saline with Tween-80 119 % of control and 87 % of control

Cc1ccc([N+](=O)[O-])cc1NC(=O)Oc1ccc2c(C)cc(=O)oc2c1
inactive: [1] 101 % of control | [3] 95 % of control

CCOC(=O)C1(C(=O)OCC)C(C)CC(O)N1C(=O)c1ccccc1[N+](=O)[O-] (stereo unspecified)
inactive: [10] 100 % of control | [11] 91 % of control | [19] 92 % of control

O=c1[nH]cnc2c1ncn2CCCCc1ccccc1
inactive: [1] 108 % of control | [2] 101 % of control | [3] 105 % of control

O=C(O)C(Br)C(Br)C(=O)Nc1cccc2ccccc12 (stereo unspecified)
inactive: [22] 97 % of control | [23] 96 % of control | [24] 96 % of control and 98 % of control

O=[N+]([O-])c1cc([N+](=O)[O-])cc(S(=O)(=O)O)c1
inactive: dose: 25.0 mg/kg/injection, schedule: Q01DX009 (ip), vehicle: saline 106 % of control | [15] 105 % of control | [16] 100 % of control and 111 % of control | [17] 105 % of control | [18] 105 % of control
